Results reported in US20070032529A1, “Pyrazole compounds and their use as antidiabetes agents” (Japan Tobacco Inc., priority 2005, published 2007).
Counter-ions that a name gives are not always drawn.

Assays:
db/db mice = experiment: Measuring blood plasma glucose concentration in db/db mice (hypoglycemic effect); assay type: in vivo; parameters: key: ++: compounds exhibiting statistically significant hypoglycemic effect at a dose of 10 mg/kg or less; +: compounds exhibiting not significant but obvious hypoglycemic effect at a dose of 10 mg/kg; details: for vivo (hypoglycemic effect in db/db mice): db/db mice fasted 4 h, oral administration, plasma glucose 1 and 3 hours after administration, dose 10 mg/kg or less, Dunnett test vs solvent; for vivo (hypoglycemic effect): db/db mice, blood plasma glucose, dose of 10 mg/kg or less
Outline: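 db/db mice aged 9-18 weeks, grouped 5 or 8 per group matched on plasma glucose, fasted 4 h, then dosed orally with compound or 0.5% methylcellulose vehicle. Plasma glucose measured 1 and 3 h post-dose; each timepoint compared against vehicle by Dunnett test.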

[1] = target: T1, recombinant human liver glycogen phosphorylase (Homo sapiens, UniProt P06737); experiment: Measuring liver glycogen phosphorylase activity (forward reaction system, NADPH absorbance at 340 nm); assay type: biochemical
T1 construct: made in house; host or cells: Sf9 insect cells (crude homogenate, diluted, used as the enzyme solution)
T1 sequence (P06737 1-847): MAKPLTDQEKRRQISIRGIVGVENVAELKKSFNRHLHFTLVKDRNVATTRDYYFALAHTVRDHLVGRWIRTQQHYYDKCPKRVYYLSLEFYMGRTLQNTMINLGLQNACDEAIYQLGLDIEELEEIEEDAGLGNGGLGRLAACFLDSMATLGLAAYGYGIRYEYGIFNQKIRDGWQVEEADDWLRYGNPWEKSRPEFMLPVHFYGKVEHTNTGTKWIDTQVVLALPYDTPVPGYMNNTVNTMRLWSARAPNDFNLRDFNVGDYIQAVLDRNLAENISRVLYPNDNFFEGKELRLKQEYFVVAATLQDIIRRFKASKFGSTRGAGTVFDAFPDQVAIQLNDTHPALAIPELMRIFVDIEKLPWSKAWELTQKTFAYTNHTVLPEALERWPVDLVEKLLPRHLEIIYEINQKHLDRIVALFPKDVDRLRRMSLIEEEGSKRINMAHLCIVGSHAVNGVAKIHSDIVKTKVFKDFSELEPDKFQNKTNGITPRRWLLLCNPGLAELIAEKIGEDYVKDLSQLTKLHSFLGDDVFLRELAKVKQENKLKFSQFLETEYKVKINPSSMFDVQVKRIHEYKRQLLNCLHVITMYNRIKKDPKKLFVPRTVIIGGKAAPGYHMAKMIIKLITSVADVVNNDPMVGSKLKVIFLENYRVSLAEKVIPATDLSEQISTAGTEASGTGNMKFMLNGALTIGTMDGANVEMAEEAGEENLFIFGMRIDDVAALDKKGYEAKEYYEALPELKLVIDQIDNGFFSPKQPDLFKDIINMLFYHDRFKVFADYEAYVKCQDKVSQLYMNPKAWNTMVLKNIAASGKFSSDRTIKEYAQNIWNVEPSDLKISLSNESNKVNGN
Outline: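 Compounds in 1% DMSO; activity taken as blank-subtracted 340 nm absorbance change across 75 min at room temperature. Forward reaction: glucose-1-phosphate released from glycogen converted by coupling enzymes, yielding NADPH; enzyme from recombinant Sf9 homogenate, reaction containing glucose, pH 6.8. IC50 from two-point linear interpolation.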

[2] = enzyme inhibitory activity with respect to liver glycogen phosphorylase, class symbols
[3] = human liver glycogen phosphorylase, class symbol

Structure (SMILES)	IC50 [1, 2]	IC50 [1, 3]	vivo (hypoglycemic effect in db/db mice) (db/db mice)	vivo (hypoglycemic effect) (db/db mice)	vivo (hypoglycemic effect in db/db mice) (db/db mice; 10 mg/kg)
O=C(NCc1c(F)cccc1F)c1cc(NC(=O)c2cc(F)c(F)cc2Cl)[nH]n1 [Example 1-21]	< 100 nM	–	+	–	–
Cc1ccnc(CNC(=O)c2cc(NC(=O)c3cc(F)c(F)cc3Cl)[nH]n2)c1 [Example 2-9]	< 100 nM	–	+	–	–
COC(=O)c1ccc(CNC(=O)c2cc(NC(=O)c3cc(F)c(F)cc3Cl)[nH]n2)cc1 [Example 1-72]	< 100 nM	–	+	–	–
O=C(NCc1cccnc1Oc1ccccc1)c1cc(NC(=O)c2cc(F)c(F)cc2Cl)[nH]n1 [Example 1-25]	< 100 nM	–	+	–	–
CCCN(Cc1ccc(N(C)C)nc1)C(=O)c1cc(NC(=O)c2cc(F)c(F)cc2Cl)[nH]n1 [Example 1-130]	< 100 nM	–	+	–	–
COc1nc(C)ccc1CNC(=O)c1cc(NC(=O)c2cc(F)c(F)cc2Cl)[nH]n1 [Example 2-5, 5-(2-chloro-4,5-difluoro-benzoylamino)-1H-pyrazole-3-carboxylic acid (2-methoxy-6-methyl-pyridin-3-ylmethyl)-amide]	< 100 nM	–	++	–	–
CS(=O)(=O)Nc1cccc(CNC(=O)c2cc(NC(=O)c3cc(F)c(F)cc3Cl)[nH]n2)c1 [Example 2-15]	< 100 nM	–	+	–	–
CCOCCN(C(=O)c1cc(NC(=O)c2cc(F)c(F)cc2Cl)[nH]n1)C1CCCCC1 [Example 1-100]	< 100 nM	–	+	–	–
O=C(NCc1ccc(Cl)cc1)c1cc(NC(=O)c2cc(F)c(F)cc2Cl)[nH]n1 [Example 1-71]	< 100 nM	–	+	–	–
CCCCN(C(=O)c1cc(NC(=O)c2cc(F)c(F)cc2Cl)[nH]n1)C1CCOCC1 [Example 1-96]	< 100 nM	–	+	–	–
O=C(NCc1ccc(-n2cccn2)nc1)c1cc(NC(=O)c2cc(F)c(F)cc2Cl)[nH]n1 [Example 1-137]	< 100 nM	–	+	–	–
O=C(Nc1cc(C(=O)N(Cc2ccccn2)C2CCCCC2)n[nH]1)c1cc(F)c(F)cc1Cl [Example 1-82]	< 100 nM	–	+	–	–
COc1ccccc1CNC(=O)c1cc(NC(=O)c2cc(F)c(F)cc2Cl)[nH]n1 [Example 1-66]	< 100 nM	–	+	–	–
COc1nc(C)cc(C)c1CNC(=O)c1cc(NC(=O)c2cc(F)c(F)cc2Cl)[nH]n1 [Example 2-7-1, 5-(2-chloro-4,5-difluoro-benzoylamino)-1H-pyrazole-3-carboxylic acid (2-methoxy-4,6-dimethyl-pyridin-3-ylmethyl)-amide dihydrochloride]	< 100 nM	–	++	–	–
Cc1ncoc1CNC(=O)c1cc(NC(=O)c2cc(F)c(F)cc2Cl)[nH]n1 [Example 1-2, 5-(2-chloro-4,5-difluoro-benzoylamino)-1H-pyrazole-3-carboxylic acid (4-methyl-oxazol-5-ylmethyl)-amide]	< 100 nM	–	++	–	–
Cc1ccc(CNC(=O)c2cc(NC(=O)c3cc(F)c(F)cc3Cl)[nH]n2)nc1 [Example 2-10]	< 100 nM	–	+	–	–
C=CCN(C(=O)c1cc(NC(=O)c2cc(F)c(F)cc2Cl)[nH]n1)C1CCCCC1 [Example 1-81]	< 100 nM	–	+	–	–
CCCN(C(=O)c1cc(NC(=O)c2cc(F)c(F)cc2Cl)[nH]n1)C1CCCCC1 [Example 1-88]	< 100 nM	–	+	–	–
COc1ccc(CNC(=O)c2cc(NC(=O)c3cc(F)c(F)cc3Cl)[nH]n2)cn1 [Example 1-12]	< 100 nM	–	–	–	++
COc1ccc(CN(CC2CC2)C(=O)c2cc(NC(=O)c3cc(F)c(F)cc3Cl)[nH]n2)cn1 [Example 1-128]	< 100 nM	–	+	–	–
O=C(NCc1cccnc1F)c1cc(NC(=O)c2cc(F)c(F)cc2Cl)[nH]n1 [Example 2-27]	< 100 nM	–	+	–	–
CCCCN(C(=O)c1cc(NC(=O)c2cc(F)c(F)cc2Cl)[nH]n1)C1CCN(C(=O)C(=O)O)CC1 [Example 1-113]	< 100 nM	–	++	–	–

Further lines, with some results ahead:

IC50 [1, 2]	IC50 [1, 3]	Structure (SMILES)	vivo (hypoglycemic effect in db/db mice) (db/db mice)	vivo (hypoglycemic effect) (db/db mice)	vivo (hypoglycemic effect in db/db mice) (db/db mice; 10 mg/kg)
< 100 nM	–	O=C(NCCN1CCOCC1)c1cc(CNC(=O)c2cc(NC(=O)c3cc(F)c(F)cc3Cl)[nH]n2)ccn1 [Example 5-13]	+	–	–
< 100 nM	–	Cc1cccc(CNC(=O)c2cc(NC(=O)c3cc(F)c(F)cc3Cl)[nH]n2)c1 [Example 3-33]	+	–	–
< 100 nM	–	Cc1cnc(CNC(=O)c2cc(NC(=O)c3cc(F)c(F)cc3Cl)[nH]n2)cn1 [Example 5-35]	+	–	–
–	< 100 nM	N#Cc1cc(CNC(=O)c2cc(NC(=O)c3cc(F)c(F)cc3Cl)[nH]n2)ccn1 [Example 6-48]	–	++	–
< 100 nM	–	Nc1ccc(CNC(=O)c2cc(NC(=O)c3cc(F)c(F)cc3Cl)[nH]n2)cc1 [Example 3-31]	+	–	–
< 100 nM	–	O=C(NCc1ccnc(C(=O)NN2CCOCC2)c1)c1cc(NC(=O)c2cc(F)c(F)cc2Cl)[nH]n1 [Example 5-14]	+	–	–
< 100 nM	–	COc1ccc(CNC(=O)c2cc(NC(=O)c3cc(F)c(F)cc3Cl)[nH]n2)cn1 [Example 5-1]	–	–	+
< 100 nM	–	CCOc1ncccc1CNC(=O)c1cc(NC(=O)c2cc(F)c(F)cc2Cl)[nH]n1 [Example 3-41]	++	–	–
< 100 nM	–	CCNC(=O)CN(C(=O)c1cc(NC(=O)c2cc(F)c(F)cc2Cl)[nH]n1)c1ccccc1 [Example 4-23]	+	–	–
–	< 100 nM	CN(C(=O)c1cc(NC(=O)c2cc(F)c(F)cc2Cl)[nH]n1)c1ccc(-c2nsc(=O)[nH]2)cc1 [Example 6-16]	–	+	–
< 100 nM	–	COC(=O)c1cccc(CNC(=O)c2cc(NC(=O)c3cc(F)c(F)cc3Cl)[nH]n2)c1 [Example 3-38]	+	–	–
< 100 nM	–	O=C(NCc1ccc(C(F)(F)F)nc1)c1cc(NC(=O)c2cc(F)c(F)cc2Cl)[nH]n1 [Example 3-40]	++	–	–
–	< 100 nM	N#Cc1ccc(CNC(=O)c2cc(NC(=O)c3cc(F)c(F)cc3Cl)[nH]n2)cc1 [Example 6-33]	–	+	–
< 100 nM	–	CN(C(=O)c1cc(NC(=O)c2cc(F)c(F)cc2Cl)[nH]n1)c1ccc(C(=O)O)cc1 [Example 4-2, 5-(2-chloro-4,5-difluoro-benzoylamino)-1H-pyrazole-3-carboxylic acid (4-carboxyphenyl)-methyl-amide]	++	–	–
< 100 nM	–	COc1ccc(CNC(=O)c2cc(NC(=O)c3cc(F)c(F)cc3Cl)[nH]n2)cn1.CS(=O)(=O)O [Example 5-15]	+	–	–
< 100 nM	–	O=C(NCc1ccco1)c1cc(NC(=O)c2cc(F)c(F)cc2Cl)[nH]n1 [Example 3-25]	+	–	–
–	< 100 nM	CN(C)C=Nc1ccccc1CNC(=O)c1cc(NC(=O)c2cc(F)c(F)cc2Cl)[nH]n1.Cl [Example 6-21]	–	++	–
–	< 100 nM	CN(C(=O)c1cc(NC(=O)c2cc(F)c(F)cc2Cl)[nH]n1)c1ccc(-c2nc(=O)o[nH]2)cc1 [Example 6-12]	–	+	–
< 100 nM	–	CCCCN(C(=O)c1cc(NC(=O)c2cc(F)c(F)cc2Cl)[nH]n1)c1ccc(CC(=O)O)cc1 [Example 4-46]	+	–	–
< 100 nM	–	CCCCN(C(=O)c1cc(NC(=O)c2cc(F)c(F)cc2Cl)[nH]n1)c1ccc(C(=O)O)cc1 [Example 4-41]	+	–	–
